Assay [1] concerns the target T1, human NLRP3 (Homo sapiens (Human), UniProt Q96P20). Nature of the assay: Scintillation Proximity (SPA) NLRP3 Assay: displacement of 3H-MCC950. The class given is binding. The note with it: for IC50: read-out: SPA IC50.
Assay [2] has as its target T1, human NLRP3. Nature of the assay: Human PBMC NLRP3 Assay (LPS priming, ATP stimulation, cytokine measurement). The class given is cell-based.
Assay [3] concerns the target T1, human NLRP3. The experiment in a line: Human Whole Blood (hWB) NLRP3 Assay (LPS/ATP, IL-1β). In kind it is cell-based.
For assay [4], the target named is mouse NLRP3 (Mus musculus (Mouse), UniProt Q8R4B8). The experiment in a line: Mouse Whole Blood (mWB) NLRP3 Assay (LPS/ATP, IL-1b). In kind it is cell-based. The method, then:
Reagents: The following reagents were used: blood collection tubes (Heparin); U-bottom 96-well tissue culture (Falcon 353077); HBSS for LPS, ATP and compound dilutions (Gibco 24020-117); and LPS, E. coli serotype 026:B6 (Sigma L-2654).
Mouse IL-1b MSD assay: Blood was drawn from female CD1 mice (9 to 10 weeks) by cardiac puncture. Blood was plated (135 μL) per well in 96-well U-bottom plates. 7.5 μL of 20×LPS (20 μg/mL, final concentration of 1 μg/mL) was added and mixed by gentle pipetting, and the mixture was incubated in a TC incubator for five hours. 7.5 μL of 20× compound or vehicle per well was added and mixed by gentle pipetting. Compounds were diluted 1/50 in HBSS to prepare a 20× dilution curve in […].
The mixture was incubated for 30 minutes in a TC incubator with shaking (450 rpm). 5 μl of 31×ATP (155 mM, final concentration of 5 mM) was added and mixed by gentle pipetting. The mixture was incubated in a TC incubator for 30 minutes with shaking (450 rpm). The plate was centrifuged for 10 minutes at 800×g and −70 μL of plasma was removed. Plasma was frozen if required. Mouse IL-1b was analyzed with IL-1b MSD assay (K152TUK).
Compounds were added 30 minutes before priming the cells with LPS when TNFα was required to be quantified in the cytokine panel to confirm selectivity.

Setting [5] is: PBMC IC50, human PBMC, LPS priming, ATP stimulation.
The mark [6] stands for this setting: hWB IC50, human whole blood, LPS/ATP, IL-1β.
Setting [7] is: mouse whole blood, LPS/ATP, IL-1b.
The mark [8] stands for this setting: relative to Comparative Example A*.
The mark [9] stands for this setting: human PBMC, LPS priming, ATP stimulation, read-out: PBMC IC50.
[10] abbreviates: human whole blood, LPS/ATP, IL-1β, read-out: hWB IC50.

Consider six compounds from patent US20260007684A1, “AMIDE DERIVATIVES FOR INHIBITING NLRP3 AND USES THEREOF” (Ventus Therapeutics U.S., Inc., priority 2023, published 2026).

Read-outs that look alike come from different tables or passages of the source.

T1 sequence (Q96P20 whole entry): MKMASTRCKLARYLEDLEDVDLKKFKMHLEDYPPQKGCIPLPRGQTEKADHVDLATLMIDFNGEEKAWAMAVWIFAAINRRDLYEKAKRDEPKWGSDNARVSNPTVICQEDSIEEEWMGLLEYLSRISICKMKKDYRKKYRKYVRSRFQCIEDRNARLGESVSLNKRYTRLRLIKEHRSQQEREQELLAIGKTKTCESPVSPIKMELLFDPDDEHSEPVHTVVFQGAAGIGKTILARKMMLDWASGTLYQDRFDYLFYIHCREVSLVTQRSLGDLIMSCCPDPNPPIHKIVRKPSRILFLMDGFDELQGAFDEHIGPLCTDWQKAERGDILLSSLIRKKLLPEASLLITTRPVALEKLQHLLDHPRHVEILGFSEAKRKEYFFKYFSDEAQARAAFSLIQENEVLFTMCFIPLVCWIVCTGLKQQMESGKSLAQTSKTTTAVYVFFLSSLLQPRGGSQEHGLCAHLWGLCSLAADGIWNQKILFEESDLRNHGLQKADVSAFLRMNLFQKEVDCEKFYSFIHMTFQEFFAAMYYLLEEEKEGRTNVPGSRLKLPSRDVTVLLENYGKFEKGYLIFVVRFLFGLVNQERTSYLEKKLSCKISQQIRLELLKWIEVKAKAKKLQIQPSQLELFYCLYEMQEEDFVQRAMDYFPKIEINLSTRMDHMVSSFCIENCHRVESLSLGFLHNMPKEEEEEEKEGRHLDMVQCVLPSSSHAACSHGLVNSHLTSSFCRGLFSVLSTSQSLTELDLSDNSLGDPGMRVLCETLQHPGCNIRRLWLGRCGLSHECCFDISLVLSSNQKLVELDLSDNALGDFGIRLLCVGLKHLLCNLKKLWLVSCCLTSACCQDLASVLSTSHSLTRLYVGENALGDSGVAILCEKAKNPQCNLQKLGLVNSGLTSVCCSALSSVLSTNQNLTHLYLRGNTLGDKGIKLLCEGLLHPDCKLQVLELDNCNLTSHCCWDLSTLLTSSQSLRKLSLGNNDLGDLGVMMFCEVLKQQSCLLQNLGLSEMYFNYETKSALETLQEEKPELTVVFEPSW
Chain of mouse NLRP3 (Q8R4B8 whole entry): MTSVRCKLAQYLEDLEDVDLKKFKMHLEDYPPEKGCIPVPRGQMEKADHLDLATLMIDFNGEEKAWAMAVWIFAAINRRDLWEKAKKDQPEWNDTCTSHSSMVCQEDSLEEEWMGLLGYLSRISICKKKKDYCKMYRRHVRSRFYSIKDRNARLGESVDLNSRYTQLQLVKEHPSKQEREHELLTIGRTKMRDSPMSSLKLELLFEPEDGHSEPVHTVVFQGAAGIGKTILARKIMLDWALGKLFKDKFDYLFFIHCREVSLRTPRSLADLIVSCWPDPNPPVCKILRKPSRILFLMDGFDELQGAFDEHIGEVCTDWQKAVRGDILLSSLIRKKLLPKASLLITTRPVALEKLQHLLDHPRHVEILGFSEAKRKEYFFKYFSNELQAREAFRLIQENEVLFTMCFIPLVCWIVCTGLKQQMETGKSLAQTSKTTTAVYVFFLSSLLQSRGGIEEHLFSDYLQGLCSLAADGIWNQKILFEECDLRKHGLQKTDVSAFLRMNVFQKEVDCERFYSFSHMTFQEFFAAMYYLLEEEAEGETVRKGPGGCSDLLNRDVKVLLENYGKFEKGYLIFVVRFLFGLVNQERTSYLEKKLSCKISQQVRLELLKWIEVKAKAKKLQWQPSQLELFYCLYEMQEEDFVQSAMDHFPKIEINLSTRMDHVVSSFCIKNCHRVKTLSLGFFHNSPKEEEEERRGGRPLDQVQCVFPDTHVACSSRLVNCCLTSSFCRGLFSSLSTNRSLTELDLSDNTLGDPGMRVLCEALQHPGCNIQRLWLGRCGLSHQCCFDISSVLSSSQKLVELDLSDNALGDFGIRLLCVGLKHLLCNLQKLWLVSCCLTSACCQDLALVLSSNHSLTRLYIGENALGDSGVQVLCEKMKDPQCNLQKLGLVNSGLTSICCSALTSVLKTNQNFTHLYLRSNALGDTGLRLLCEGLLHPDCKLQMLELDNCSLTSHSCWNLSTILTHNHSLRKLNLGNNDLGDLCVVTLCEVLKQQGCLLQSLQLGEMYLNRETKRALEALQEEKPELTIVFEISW

For `C[C@@H]1C[C@@H](NC(=O)C2(c3ccc(OC(F)F)cc3)CC2)[C@H]2CC[C@@H]1N2c1nnn[nH]1` (single isomer, unassigned) [35A*], the IC50 in assay [1] (displacement of 3H-MCC950) is < 1000 nM; in assay [2] (setting [5]) it was < 10 nM; in assay [3] (setting [6]) it was < 1000 nM; in assay [4] (setting [7]), < 1000 nM.
`C[C@@H]1C[C@@H](NC(=O)C2(c3ccc(C(F)(F)F)cc3)CC2)[C@H]2CC[C@@H]1N2c1nnn[nH]1` [79A*, N-((1R,2R,4R,5S)-4-methyl-8-(1H-tetrazol-5-yl)-8-azabicyclo[3.2.1]octan-2-yl)-1-(4-(trifluoromethyl)phenyl)cyclopropane-1-carboxamide]: the concentration for half-maximal inhibition (IC50) in assay [1] (displacement of 3H-MCC950) is < 1000 nM; in assay [2] (setting [5]), < 10 nM; in assay [3] (setting [6]) it was < 1000 nM; in assay [4] (setting [7]), < 1000 nM.
As to `O=C(N[C@@H]1CCCN(c2nnn[nH]2)C1)C1(c2ccc(Cl)cc2)CC1` [Compound 10A, (R)-N-(1-(1H-tetrazol-5-yl)piperidin-3-yl)-1-(4-chlorophenyl)cyclopropane-1-carboxamide], the half-maximal inhibitory concentration (IC50) in assay [1] (displacement of 3H-MCC950) is 1000 to 10000 nM; in assay [1], 9500 nM; in assay [2] (setting [9]), > 500 nM; in assay [2] (read-out: PBMC IC50), 2100 nM; in assay [3] (setting [10]), > 3000 nM; in assay [3] (read-out: hWB IC50), 7300 nM. For the same compound, the concentration for half-maximal inhibition (IC50) in assay [4] is 1900 nM; in assay [4] (setting [7]), 1000 to 2000 nM. Also, in assay [1] (setting [8]), the “fold increase in binding activity (SPA IC50)” value (“fold increase … (SPA IC50)” below) was > 40 fold. For the same compound, the “fold increase in potency as measured by PBMC IC50” value (from here on “fold increase … by PBMC IC50”) in assay [2] (relative to Comparative Example F) is reported as 4 fold; in assay [2] (relative to Comparative Example G), > 47 fold; in assay [2] (relative to Comparative Example H), 5 fold; in assay [2] (relative to Comparative Example J1), > 47 fold; in assay [2] (relative to Comparative Example J2) it was > 47 fold. Moreover, the “fold increase in potency as measured by hWB IC50” value (shortened to “fold increase … by hWB IC50”) in assay [3] (setting [8]) is reported as > 6 fold. Moreover, the “fold increase in potency as measured by mWB IC50” value (shortened to “fold increase … by mWB IC50”) in assay [4] (relative to Comparative Example B1) is listed as 26 fold.
Turning to `C[C@H]1C[C@@H](NC(=O)C2(c3ccc(C(F)(F)F)cc3O)CC2)CN(c2nnn[nH]2)C1` [Compound 16A, 1-(2-hydroxy-4-(trifluoromethyl)phenyl)-N-((3R,5S)-5-methyl-1-(1H-tetrazol-5-yl)piperidin-3-yl)cyclopropane-1-carboxamide], the IC50 in assay [1] (displacement of 3H-MCC950) is < 1000 nM; in assay [1], 41 nM; in assay [2] (setting [9]), < 10 nM; in assay [2] (read-out: PBMC IC50) it was 4.3 nM; in assay [3] (setting [10]) it was < 1000 nM; in assay [3] (read-out: hWB IC50), 61 nM. Also, the IC50 is 82 nM in assay [4] and < 1000 nM in assay [4] (setting [7]).
Consider `C[C@H]1C[C@@H](NC(=O)C2(c3ccc(Cl)cc3)CC2)CN(c2nnn[nH]2)C1` [Compound 46A, 1-(4-chlorophenyl)-N-((3R,5S)-5-methyl-1-(1H-tetrazol-5-yl)piperidin-3-yl)cyclopropane-1-carboxamide], for which the half-maximal inhibitory concentration (IC50) is < 1000 nM in assay [1] (displacement of 3H-MCC950); 860 nM in assay [1]; 10 to 100 nM in assay [2] (setting [9]); 100 nM in assay [2] (read-out: PBMC IC50); 2000 to 3000 nM in assay [3] (setting [10]); 2500 nM in assay [3] (read-out: hWB IC50). Moreover, the 50% inhibitory concentration (IC50) in assay [4] is 170 nM; in assay [4] (setting [7]) it was < 1000 nM. The “fold increase … (SPA IC50)” value in assay [1] (relative to Compound 10A) came to 11 fold. Besides, the “fold increase … by PBMC IC50” value in assay [2] (relative to Compound 10A) was 21 fold. For the same compound, the “fold increase … by hWB IC50” value in assay [3] (relative to Compound 10A) was 3 fold. Also, the “fold increase … by mWB IC50” value in assay [4] (relative to Compound 10A) was 11 fold.
As for `C[C@H]1C[C@@H](NC(=O)C2(c3ccc(Cl)cc3O)CC2)CN(c2nnn[nH]2)C1` [Compound 47A, 1-(4-chloro-2-hydroxyphenyl)-N-((3R,5S)-5-methyl-1-(1H-tetrazol-5-yl)piperidin-3-yl)cyclopropane-1-carboxamide], the concentration for half-maximal inhibition (IC50) was < 1000 nM in assay [1] (displacement of 3H-MCC950); 48 nM in assay [1]; < 10 nM in assay [2] (setting [9]); 6.7 nM in assay [2] (read-out: PBMC IC50); < 1000 nM in assay [3] (setting [10]); 220 nM in assay [3] (read-out: hWB IC50). For the same compound, the concentration for half-maximal inhibition (IC50) in assay [4] is 35 nM; in assay [4] (setting [7]) it was < 1000 nM. For the same compound, the “fold increase … (SPA IC50)” value in assay [1] (relative to Compound 46A) is recorded as 18 fold. Besides, in assay [2] (relative to Compound 46A), the “fold increase … by PBMC IC50” value was found to be 15 fold. For the same compound, in assay [3] (relative to Compound 46A), the “fold increase … by hWB IC50” value is given as > 11 fold. In assay [4] (relative to Compound 46A), the “fold increase … by mWB IC50” value is on record as 4.9 fold.
